According to ChEMBL document CHEMBL4340512, “Discovery of novel triazolo[4,3-b]pyridazin-3-yl-quinoline derivatives as PIM inhibitors” (Eur J Med Chem, 2019):

How the values were obtained:
NCI-H522 = assay: Antiproliferative activity against human NCI-H522 cells incubated for 72 hrs by CellTiter-Glo luminescence assay; type: functional; conditions: NCI-H522, 72 h
MDA-MB-231 = assay: Antiproliferative activity against human MDA-MB-231 cells incubated for 72 hrs by CellTiter-Glo luminescence assay; type: functional; conditions: MDA-MB-231, 72 h
[1] = target: T1, Serine/threonine-protein kinase pim-1 (Homo sapiens, UniProt P11309); assay: Inhibition of His tagged human recombinant PIM1 using PIM tide (ARKRRRHPSGPPTA) as substrate incubated for 1 hr by fluorescence based assay
PC-3 = assay: Antiproliferative activity against human PC3 cells incubated for 72 hrs by CellTiter-Glo luminescence assay; type: functional; conditions: PC-3, 72 h
[2] = Antiproliferative activity against human MDA-MB-175 cells incubated for 72 hrs by CellTiter-Glo luminescence assay; type: functional
JeKo-1 [3] = assay: Antiproliferative activity against human JeKo1 assessed as combination index at 10 uM incubated for 72 hrs in presence of GI50 dose of Lapatinib by CellTiter-Glo luminescence assay; type: functional
[4] = target: Voltage-gated inwardly rectifying potassium channel KCNH2 (Homo sapiens, UniProt Q12809)
T47D = assay: Antiproliferative activity against human T47D assessed as combination index at 20 uM incubated for 72 hrs in presence of GI50 dose of GDC-0941 by CellTiter-Glo luminescence assay; type: functional
[5] = target: T1, Serine/threonine-protein kinase pim-1; assay: Inhibition of PIM1 in human NCI-H1299 cells assessed as reduction in BAD phosphorylation at Ser-112 residue incubated for 4 hrs by ELISA; type: cell-based; conditions: read-out: EC50
SK-MEL19 = assay: Antiproliferative activity against human SK-MEL-19 assessed as combination index at 5 uM incubated for 72 hrs in presence of GI50 dose of Taxotere by CellTiter-Glo luminescence assay; type: functional
JeKo-1 [6] = assay: Antiproliferative activity against human JeKo1 cells incubated for 72 hrs by CellTiter-Glo luminescence assay; type: functional; conditions: JeKo-1, 72 h
HCT-116 = assay: Antiproliferative activity against human HCT116 cells incubated for 72 hrs by CellTiter-Glo luminescence assay; type: functional; conditions: HCT-116, 72 h

- GI50 (NCI-H522): 9.7 µM
- GI50 (MDA-MB-231): 21.2 µM
- IC50 [1]: 0.007 µM
- GI50 (PC-3): 17.1 µM
- EC50 [5]: 0.262 µM
- GI50 (HCT-116): 21.2 µM
SMILES: COCCN1CCOc2c1cnn1c(-c3ccc4cccc(NCC5CCNCC5)c4n3)nnc21
- GI50 [2]: 10.2 µM
- CI (JeKo-1 [3]): 0.295
- IC50 [4]: > 20 µM
- CI (T47D): 0.598
- CI (SK-MEL19): 0.535
- GI50 (JeKo-1 [6]): 7.3 µM
